Laboratory results: patent publication US11111251B2, “Positive allosteric modulators of the muscarinic acetylcholine receptor M1” (Vanderbilt University, priority 2016, dated 2021)
Read-outs that look alike come from different tables or passages of the source.

Target: T1, human mAChR M1 (Homo sapiens, UniProt P11229)
T1 sequence (P11229 1-460): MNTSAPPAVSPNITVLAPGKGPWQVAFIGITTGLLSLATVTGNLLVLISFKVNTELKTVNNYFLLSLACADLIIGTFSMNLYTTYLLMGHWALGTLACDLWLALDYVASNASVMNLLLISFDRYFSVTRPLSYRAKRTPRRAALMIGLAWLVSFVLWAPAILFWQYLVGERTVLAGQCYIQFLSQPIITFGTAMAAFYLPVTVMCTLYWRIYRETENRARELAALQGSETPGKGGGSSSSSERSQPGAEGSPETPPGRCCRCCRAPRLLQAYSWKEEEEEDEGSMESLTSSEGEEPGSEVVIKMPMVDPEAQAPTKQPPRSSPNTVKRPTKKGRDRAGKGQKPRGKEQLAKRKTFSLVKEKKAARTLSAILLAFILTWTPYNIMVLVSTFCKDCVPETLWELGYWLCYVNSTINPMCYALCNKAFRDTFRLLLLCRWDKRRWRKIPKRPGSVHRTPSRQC
Test: mAChR M1 cell-based functional assay: calcium mobilization, positive allosteric modulator mode (increase in EC20 acetylcholine response)
Conditions: for Emax: read-out: Human M1 Emax (%)
Source text: a. Cell Lines Expressing Muscarinic Acetylcholine Receptors
Chinese hamster ovary (CHO-K1) cells stably expressing rat (r)M1 were purchased from the American Type Culture Collection and cultured according to their indicated protocol. CHO cells stably expressing human (h)M2, hM3, and hM5 were described previously (Levey, et al., 1991); hMi and hM4 cDNAs were purchased from Missouri S&T cDNA Resource; rM4 cDNA was provided by T. I. Bonner (National Institutes of Health, Bethesda, Md.). rM2 and rM3 were cloned from a rat brain cDNA library and sequence verified. hMi, rM2, rM3, hM4, and rM4 cDNAs were used to stably transfect CHO-K1 cells purchased from the American Type Culture Collection using Lipofectamine2000. To make stable rM2, hM2, rM3, hM4, and rM4 cell lines for use in calcium mobilization assays, these cells also were stably transfected with a chimeric G-protein (Gqi5) (provided by B. R. Conklin, University of California, San Francisco) using Lipofectamine 2000. rMi, hMi, rM3, hM3, rM5, and hM5 cells were grown in Ham's F-12 medium containing 10% heat-inactivated fetal bovine serum (FBS), 20 mM HEPES, and 50 μg/mL G418 sulfate. rM2-Gqi5, hM2-Gqi5, and hM4-Gqi5 cells were grown in the same medium also containing 500 μg/mL Hygromycin B. Stable rM4-Gqi5 cells were grown in DMEM containing 10% heat-inactivated FBS, 20 mM HEPES, 400 μg/mL G418 sulfate, and 500 μg/mL Hygromycin B.
b. Cell-Based Functional Assay of Muscarinic Acetylcholine Receptor Activity
For high throughput measurement of agonist-evoked increases in intracellular calcium, CHO-K1 cells stably expressing muscarinic receptors were plated in growth medium lacking G418 and hygromycin at 15,000 cells/20 μL/well in Greiner 384-well black-walled, tissue culture (TC)-treated, clear-bottom plates (VWR). Cells were incubated overnight at 37° C. and 5% CO2. The next day, cells were washed using an ELX 405 (BioTek) with four washes (80 μL) of assay buffer then aspirated to 20 μL. Next, 20 μL of 16 μM Fluo-4/acetoxymethyl ester (Invitrogen, Carlsbad, Calif.) prepared as a 2.3 mM stock in DMSO and mixed in a 1:1 ratio with 10% (w/v) Pluronic F-127 and diluted in assay buffer was added to the wells and the cell plates were incubated for 50 min at 37° C. and 5% CO2. Dye was removed by washing with the ELX 405 (four […], washes of assay buffer) then aspirated to 20 μL. Compound master plates were formatted in an 11 point CRC format (1:3 dilutions) in 100% DMSO with a starting concentration of 10 mM using the BRAVO liquid handler (Agilent). Test compound CRCs were then transferred to daughter plates (240 nL) using the Echo acoustic plate reformatter (Labcyte, Sunnyvale, Calif.) and then diluted into assay buffer (40 μL) to a 2× stock using a Thermo Fisher Combi (Thermo Fisher Scientific, Waltham, Mass.).
Calcium flux was measured using the Functional Drug Screening System (FDSS) 6000 (Hamamatsu Corporation, Tokyo, Japan) as an increase in the fluorescent static ratio. Compounds were applied to cells (20 μL, 2×) using the automated system of the FDSS 6000 at 4 s into the 300 s protocol and the data were collected at 1 Hz. At 144 s into the 300s protocol, 10 μL of an EC20 concentration of the muscarinic receptor agonist acetylcholine was added (5×), followed by the addition of 12 μL an EC80 concentration of acetylcholine at the 230 s time point (5×). Agonist activity was analyzed as a concentration-dependent increase in calcium mobilization upon compound addition. Positive allosteric modulator activity was analyzed as a concentration-dependent increase in the EC20 acetylcholine response. Antagonist activity was analyzed as a concentration-dependent decrease in the EC80 acetylcholine response. Concentration-response curves were generated using a four-parameter logistical equation in XLfit curve fitting software (IDBS, Bridgewater, N.J.) for Excel (Microsoft, Redmond, Wash.) or Prism (GraphPad Software, Inc., San Diego, Calif.).

[1] = Table 2, human M1, read-out: Human M1 EC50

| Structure (SMILES) | EC50 [1] | Emax (Table 2, human M1) | EC50 (Table 1, mAChR M1 cell-based functional assay, PAM mode, species not given, read-out: EC50) |
| --- | --- | --- | --- |
| O=C(NC1CCCCNC1=O)c1cc(Cc2ccc(-c3cscn3)cc2)c2sccc2n1 (centres unmarked) [Compound 222, N-(2-oxoazepan-3-yl)-7-[(4-thiazol-4-ylphenyl)methyl]thieno[3,2-b]pyridine-5-carboxamide] | 0.317 µM | 80.3% |  |
| COCCNC(=O)c1cc(Cc2ccc(-c3cnn(C)c3)nc2)c2sccc2n1 [Compound 342, N-(2-methoxyethyl)-7-[[6-(1-methylpyrazol-4-yl)-3-pyridyl]methyl]thieno[3,2-b]pyridine-5-carboxamide] | 0.289 µM | 89.5% |  |
| O=C(NC1CC(F)C1)c1cc(Cc2ccc(-c3nccs3)cc2)c2sccc2n1 (centres unmarked) [Compound 367, N-(3-fluorocyclobutyl)-7-[(4-thiazol-2-ylphenyl)methyl]thieno[3,2-b]pyridine-5-carboxamide] | > 10 µM | 71.9% |  |
| O=C(N[C@H]1CCOC[C@@H]1O)c1cc(Cc2c(F)cc(-c3cscn3)cc2F)c2sccc2n1 [Compound 270, 7-[(2,6-difluoro-4-thiazol-4-yl-phenyl)methyl]-N-[(3R,4S)-3-hydroxytetrahydropyran-4-yl]thieno[3,2-b]pyridine-5-carboxamide] | 0.0397 µM | 78.5% |  |
| Cc1ccc(Cc2cc(C(=O)NC3CC(F)(F)C3)nc3ccsc23)cn1 [Compound 260, N-(3,3-difluorocyclobutyl)-7-[(6-methyl-3-pyridyl)methyl]thieno[3,2-b]pyridine-5-carboxamide] | 5.37 µM | 58.4% |  |
| Cc1csc2c(Cc3ccc(-c4ccn(C)n4)cc3)cc(C(=O)NCC3CCO3)nc12 (centres unmarked) [Compound 310, 3-methyl-7-[[4-(1-methylpyrazol-3-yl)phenyl]methyl]-N-(oxetan-2-ylmethyl)thieno[3,2-b]pyridine-5-carboxamide] | 0.471 µM | 78.1% |  |
| Cc1ncc(Cc2cc(C(=O)NC3CCCNC3=O)nc3ccsc23)s1 (centres unmarked) [Compound 143, 7-[(2-methylthiazol-5-yl)methyl]-N-(2-oxo-3-piperidyl)thieno[3,2-b]pyridine-5-carboxamide] | > 10 µM | 50.5% |  |
| Cc1cc2nc(C(=O)N[C@H]3CCCC[C@@H]3O)cc(Cc3ccc(-n4cccn4)cc3)c2s1 [Compound 237, N-[(1S,2S)-2-hydroxycyclohexyl]-2-methyl-7-[(4-pyrazol-1-ylphenyl)methyl]thieno[3,2-b]pyridine-5-carboxamide] | 0.455 µM | 85.2% |  |
| Cc1csc2c(Cc3ccc(-n4cccn4)cc3)cc(C(=O)N[C@@H]3CCC[C@H]3O)nc12 [Compound 114, N-[(1R,2R)-2-hydroxycyclopentyl]-3-methyl-7-[(4-pyrazol-1-ylphenyl)methyl]thieno[3,2-b]pyridine-5-carboxamide] | 0.562 µM | 84.5% |  |
| Cc1ccc(Cc2cc(C(=O)N[C@H]3CCOC3)nc3ccsc23)cn1 [Compound 263, 7-[(6-methyl-3-pyridyl)methyl]-N-[(35)-tetrahydrofuran-3-yl]thieno[3,2-b]pyridine-5-carboxamide] | > 10 µM | 29.3% |  |
| Cn1cc(-c2ccc(Cc3cc(C(=O)NC[C@@H]4CCCO4)nc4ccsc34)cn2)cn1 [Compound 349, 7-[[6-(1-methylpyrazol-4-yl)-3-pyridyl]methyl]-N-[[(2S)-tetrahydrofuran-2-yl]methyl]thieno[3,2-b]pyridine-5-carboxamide] | 0.0254 µM | 89.8% |  |
| CO[C@H]1CCCC[C@@H]1NC(=O)c1cc(Cc2ccc(C)nc2)c2sccc2n1 [Compound 48, N-[(1S,2S)-2-methoxycyclohexyl]-7-[(6-methyl-3-pyridyl)methyl]thieno[3,2-b]pyridine-5-carboxamide] |  |  | 5.77 µM |
| Cc1nc(-c2ccc(Cc3cc(C(=O)N4CCC(C)(O)CC4)nc4ccsc34)cc2)co1 [Compound 174, (4-hydroxy-4-methyl-1-piperidyl)-[7-[[4-(2-methyloxazol-4-yl)phenyl]methyl]thieno[3,2-b]pyridin-5-yl]methanone] | > 10 µM | 45.1% |  |
| Cc1ccc(Cc2cc(C(=O)Nc3cc(C)n[nH]3)nc3ccsc23)cn1 [Compound 69, N-(3-methyl-1H-pyrazol-5-yl)-7-[(6-methyl-3-pyridyl)methyl]thieno[3,2-b]pyridine-5-carboxamide] | 6.82 µM | 80.3% |  |

Results, then the compound that gave them:

| EC50 [1] | Emax (Table 2, human M1) | EC50 (Table 1, mAChR M1 cell-based functional assay, PAM mode, species not given, read-out: EC50) | Structure (SMILES) |
| --- | --- | --- | --- |
| 1.34 µM | 68.7% |  | C[C@H]1COCC[C@@H]1NC(=O)c1cc(Cc2ccc(-c3cncs3)cc2)c2sccc2n1 [Compound 393, N-[(3R,4S)-3-methyltetrahydropyran-4-yl]-7-[(4-thiazol-5-ylphenyl)methyl]thieno[3,2-b]pyridine-5-carboxamide] |
| 0.846 µM | 67.8% |  | CC1(C)CC(NC(=O)c2cc(Cc3ccc(-c4cncs4)cc3)c3sccc3n2)CCO1 (centres unmarked) [Compound 388, N-(2,2-dimethyltetrahydropyran-4-yl)-7-[(4-thiazol-5-ylphenyl)methyl]thieno[3,2-b]pyridine-5-carboxamide] |
| 0.39 µM | 85.4% |  | Cn1cc(-c2ccc(Cc3cc(C(=O)NC4CC5(COC5)C4)nc4ccn(C)c34)cn2)cn1 [Compound 471, 1-methyl-7-[[6-(1-methylpyrazol-4-yl)-3-pyridyl]methyl]-N-(2-oxaspiro[3.3]heptan-6-yl)pyrrolo[3,2-b]pyridine-5-carboxamide] |
| 0.223 µM | 86% |  | Cn1cc(-c2ccc(Cc3cc(C(=O)NC4CCOCC4)nc4ccn(C)c34)cn2)cn1 [Compound 470, 1-methyl-7-[[6-(1-methylpyrazol-4-yl)-3-pyridyl]methyl]-N-tetrahydropyran-4-yl-pyrrolo[3,2-b]pyridine-5-carboxamide] |
| 0.191 µM | 72.5% |  | Cn1ccc(-c2ccc(Cc3cc(C(=O)NC[C@H]4CCCO4)nc4ccsc34)cn2)n1 [Compound 413, 7-[[6-(1-methylpyrazol-3-yl)-3-pyridyl]methyl]-N-[[(2R)-tetrahydrofuran-2-yl]methyl]thieno[3,2-b]pyridine-5-carboxamide] |
| 3.57 µM | 56.7% |  | COCCCNC(=O)c1cc(Cc2ccc(-c3cncs3)cc2)c2sccc2n1 [Compound 404, N-(3-methoxypropyl)-7-[(4-thiazol-5-ylphenyl)methyl]thieno[3,2-b]pyridine-5-carboxamide] |
| 0.199 µM | 65.4% |  | C[C@@H]1COCC[C@@H]1NC(=O)c1cc(Cc2ccc(-c3cncs3)cc2)c2sccc2n1 [Compound 392, N-[(3S,4S)-3-methyltetrahydropyran-4-yl]-7-[(4-thiazol-5-ylphenyl)methyl]thieno[3,2-b]pyridine-5-carboxamide] |
